Consider 18 compounds from patent US6699864B2, “Substituted phenyl-piperazine derivatives, their preparation and use” (H. Lundbeck A/S, priority 1999, dated 2004).

Where a name gives a salt, the structure may show the parent alone.

Data set [1] deals with T1, 3H-5-HT uptake into whole rat brain synaptosomes (serotonin reuptake) (Rattus norvegicus, UniProt P31652).
T1 construct: whole rat brain synaptosomes; from tissue; host or cells: whole rat brain synaptosomes
The data set can be described thus: Inhibition of 3H-5-HT uptake into rat brain synaptosomes. It counts as biochemical. As to conditions: for inhibition at 0.1 µM: at 100 nM; for IC50: in vitro. The protocol:
Inhibition of ^3H-5-HT Uptake Into Rat Brain Synaptosomes
Using this method, the ability of drugs to inhibit the accumulation of ^3H-5-HT into whole rat brain synaptosomes is determined in vitro. The assay was performed as described by Hyttel, J., Psychopharmacology 1978, 60, 13.

The target of another data set is T2, human 5-HT1A receptors (Homo sapiens, UniProt P08908).
T2 construct: expressed in transfected cells; host or cells: HeLa cells (HA7)
T2 sequence (P08908 1-422): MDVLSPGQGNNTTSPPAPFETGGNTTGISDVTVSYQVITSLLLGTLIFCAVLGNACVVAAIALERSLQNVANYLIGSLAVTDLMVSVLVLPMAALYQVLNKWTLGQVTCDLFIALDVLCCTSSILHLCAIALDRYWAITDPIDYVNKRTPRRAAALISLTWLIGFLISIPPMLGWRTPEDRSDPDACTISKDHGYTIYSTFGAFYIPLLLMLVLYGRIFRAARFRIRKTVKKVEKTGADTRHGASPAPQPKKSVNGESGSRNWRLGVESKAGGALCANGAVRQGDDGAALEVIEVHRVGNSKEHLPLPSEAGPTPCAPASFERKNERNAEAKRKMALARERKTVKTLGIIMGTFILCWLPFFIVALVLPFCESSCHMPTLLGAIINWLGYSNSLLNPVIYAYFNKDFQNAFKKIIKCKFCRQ
Nature of the data set: Inhibition of 3H-5-CT binding to human 5-HT1A receptors. As to conditions: cloned human 5-HT1A receptors expressed in HeLa cells (HA7); 15 minutes at 37° C., pH 7.7. How it is done:
The affinity of the compounds of the invention to 5-HT1A receptors was determined by measuring the inhibition of binding of a radioactive ligand at 5-HT1A receptors as described in the following test:
Inhibition of ^3H-5-CT Binding to Human 5-HT1A Receptors.
By this method, the inhibition by drugs of the binding of the 5-HT1A agonist ^3H-5-carboxamido tryptamine (^3H-5-CT) to cloned human 5-HT1A receptors stably expressed in transfected HeLa cells (HA7) (Fargin, A. et al, J. Biol. Chem., 1989, 264, 14848) is determined in vitro. The assay was performed as a modification of the method described by Harrington, M. A. et al, J. Pharmacol. Exp. Ther., 1994, 268, 1098. Human 5-HT1A receptors (40 μg of cell homogenate) were incubated for 15 minutes at 37° C. in 50 mM Tris buffer at pH 7.7 in the presence of ^3H-5-CT. Non-specific binding was determined by including 10 μM of metergoline. The reaction was terminated by rapid filtration through Unifilter GF/B filters on a Tomtec Cell Harvester. Filters were counted in a Packard Top Counter.

T1 sequence (P31652 whole entry): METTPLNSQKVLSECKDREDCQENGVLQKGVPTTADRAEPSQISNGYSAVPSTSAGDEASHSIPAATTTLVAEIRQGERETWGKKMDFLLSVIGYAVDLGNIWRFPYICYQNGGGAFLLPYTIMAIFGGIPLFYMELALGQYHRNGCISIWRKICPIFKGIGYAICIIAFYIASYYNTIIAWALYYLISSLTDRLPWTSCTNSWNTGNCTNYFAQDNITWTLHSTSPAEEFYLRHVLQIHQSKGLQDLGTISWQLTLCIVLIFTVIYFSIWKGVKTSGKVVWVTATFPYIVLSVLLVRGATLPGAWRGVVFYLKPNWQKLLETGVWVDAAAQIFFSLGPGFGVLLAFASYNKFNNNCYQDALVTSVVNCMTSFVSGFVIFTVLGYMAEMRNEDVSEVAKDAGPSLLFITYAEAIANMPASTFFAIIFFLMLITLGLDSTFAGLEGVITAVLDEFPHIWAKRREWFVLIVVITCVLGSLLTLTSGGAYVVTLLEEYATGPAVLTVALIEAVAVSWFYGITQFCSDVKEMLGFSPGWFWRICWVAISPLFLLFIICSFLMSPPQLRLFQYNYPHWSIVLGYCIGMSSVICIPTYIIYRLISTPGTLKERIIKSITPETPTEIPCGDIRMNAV

`c1ccc(N2CCN(CCc3c[nH]c4ccccc34)CC2)c(Oc2ccc3c(c2)OCO3)c1` (as salt: oxalate) [Compound 1b, 1-[2-(1,3-Benzodioxolan-5-yloxy)phenyl]-4-[2-(1H-indol-3-yl)ethyl]piperazine] registered a melting point of 221 to 228 °C. Take `Clc1ccc2c(CCN3CCN(c4ccccc4Oc4ccc5c(c4)OCO5)CC3)c[nH]c2c1` [Compound 3e, 1-[2-(1,3-Benzodioxolan-5-yloxy)phenyl]-4-[2-(6-chloro-1H-indol-3-yl)ethyl]piperazine]: in data set [1], the inhibition at 0.1 µM is 40%. In addition, the IC50 on human 5-HT1A receptors stood at 24 nM.

In data set [1], `CCOc1cccc(Oc2ccccc2N2CCN(CCCc3c[nH]c4ccc(C)cc34)CC2)c1` [Compound 5ai, 1-[2-(3-Ethoxyphenoxy)phenyl]-4-[3-(5-methyl-1H-indol-3-yl)propyl]piperazine] displayed an inhibition at 0.1 µM of 34%. This compound also displayed a half-inhibitory concentration (IC50) at human 5-HT1A receptors of 28 nM. The matching figures for `c1ccc(N2CCN(CCCCc3c[nH]c4ccccc34)CC2)c(Oc2ccc3c(c2)OCO3)c1` [Compound 3c]: 27% and 16 nM. As to `Fc1ccc2[nH]cc(CCCN3CCN(c4ccccc4Oc4ccccc4)CC3)c2c1` [Compound 5f, 1-(2-Phenoxyphenyl)-4-[3-(5-fluoro-1H-indol-3-yl)propyl]piperazine], the IC50 came to 4.8 nM in data set [1] and 10 nM at human 5-HT1A receptors. The matching figures for `COc1ccccc1Oc1ccccc1N1CCN(CCCc2c[nH]c3c(F)cc(F)cc23)CC1` [Compound 5x, 1-[2-(2-Methoxyphenoxy)phenyl]-4-[3-(5,7-difluoro-1H-indol-3-yl)propyl]piperazine]: 33 nM and 18 nM.

For `c1ccc(N2CCN(CCCc3c[nH]c4ccccc34)CC2)c(Oc2ccc3c(c2)OCO3)c1` (as salt: oxalate) [Compound 2b, 1-[2-(1,3-Benzodioxolan-5-Yloxy)Phenyl]-4-[3-(1H-Indol-3-Yl)Propyl]Piperazine], the melting point was 156 to 162 °C. As to `COc1cccc(OC)c1Oc1ccccc1N1CCN(CCCc2c[nH]c3ccc(Br)cc23)CC1` [Compound 5h, 1-[2-(2,6-Dimethoxyphenoxy)phenyl]-4-[3-(5-bromo-1H-indol-3-yl)propyl]piperazine], 0.1 µM produced 55% inhibition in data set [1]. Further, the concentration for half-maximal inhibition (IC50) at human 5-HT1A receptors was found to be 10 nM.

`Clc1ccc2c(CCCN3CCN(c4ccccc4Oc4ccc5c(c4)OCO5)CC3)c[nH]c2c1` (as salt: hydrochloride) [Compound 2c, 1-[2-(1,3-Benzodioxolan-5-Yloxy)Phenyl]-4-[3-(6-Chloro-1H-Indol-3-Yl)Propyl]Piperazine]: the melting point was 165 °C (dec.). On to `Fc1ccc2[nH]cc(CCCN3CCN(c4ccccc4Oc4cccc(N5CCOCC5)c4)CC3)c2c1` [Compound 5ag, 1-{2-[3-(Morpholin-4-yl)phenoxy]phenyl}-4-[3-(5-fluoro-1H-indol-3-yl)propyl]piperazine], for which the results for the IC50 (in data set [1]; on human 5-HT1A receptors) were 23 nM and 26 nM, respectively.

`COc1ccccc1Oc1ccccc1N1CCN(CCCc2c[nH]c3ccc(F)cc23)CC1` [Compound 5l, 1-[2-(2-Methoxyphenoxy)phenyl]-4-[3-(5-fluoro-1H-indol-3-yl)propyl]piperazine]: the IC50 in data set [1] was determined as 4.7 nM; at human 5-HT1A receptors, 13 nM. For `c1ccc(N2CCN(CCCc3c[nH]c4ccccc34)CC2)c(Oc2ccc3c(c2)OCO3)c1` [Compound 2b, 1-[2-(1,3-Benzodioxolan-5-Yloxy)Phenyl]-4-[3-(1H-Indol-3-Yl)Propyl]Piperazine], the IC50 came out at 2.8 nM in data set [1] and 16 nM on human 5-HT1A receptors. Take `c1ccc(N2CCN(CCCc3c[nH]c4ccccc34)CC2)c(Oc2cccc3c2OCCO3)c1` [Compound 5ae, 1-[2-(1,4-Benzodioxan-5-yloxy)phenyl]-4-[3-(1H-indol-3-yl)propyl]piperazine]: the inhibition at 0.1 µM in data set [1] was 42%. At human 5-HT1A receptors, this compound gave an IC50 of 26 nM. As for `Fc1ccc2[nH]cc(CCCN3CCN(c4ccccc4Oc4cccc5c4OCCO5)CC3)c2c1` [Compound 5a, 1-[2-(1,4-Benzodioxan-5-Yloxy)Phenyl]-4-[3-(5-Fluoro-1H-Indol-3-Yl)Propyl]Piperazine], the concentration for half-maximal inhibition (IC50) in data set [1] is 14 nM; at human 5-HT1A receptors, 19 nM. As for `c1ccc(N2CCN(CCc3c[nH]c4ccccc34)CC2)c(Oc2ccc3c(c2)OCO3)c1` [Compound 1b, 1-[2-(1,3-Benzodioxolan-5-yloxy)phenyl]-4-[2-(1H-indol-3-yl)ethyl]piperazine], the figures for the IC50 (in data set [1]; at human 5-HT1A receptors) were 130 nM and 7.8 nM, respectively. In the case of `COc1ccccc1Oc1ccccc1N1CCN(CCCc2c[nH]c3ccc(F)cc23)CC1` (as salt: hydrochloride) [Compound 2d, 1-[2-(2-Methoxyphenoxy)Phenyl]-4-[3-(5-Fluoro-1H-Indol-3-Yl)Propyl]Piperazine], the melting point fell in the range of 183 to 189 °C.

Turning to `Cc1ccc2[nH]cc(CCCN3CCN(c4ccccc4Oc4cccc(N(C)C)c4)CC3)c2c1` [Compound 5i, 1-(2-[3-(Dimethylamino)phenoxy]phenyl]-4-[3-(5-methyl-1H-indol-3-yl)propyl]piperazine], 0.1 µM produced 46% inhibition in data set [1]. On human 5-HT1A receptors, this compound returned an IC50 of 10 nM. With `c1ccc(Oc2ccccc2N2CCN(CCCc3c[nH]c4ccccc34)CC2)cc1` [Compound 5e, 1-(2-Phenoxyphenyl)-4-[3-(1H-indol-3-yl)propyl]piperazine], the IC50 stood at 13 nM in data set [1] and 10 nM at human 5-HT1A receptors.

By melting point is commonly meant the temperature of the solid-liquid transition. For orientation: inhibition means the drop in the measured response relative to a control, in per cent. Higher therefore signals strong suppression. For orientation: IC50 means the midpoint of a concentration-inhibition curve. The low end stands for greater potency, the high end for weaker potency.
